Results published in ChEMBL document CHEMBL4184247, “Development of a series of novel o-phenylenediamine-based indoleamine 2,3-dioxygenase 1 (IDO1) inhibitors” (Bioorg Med Chem Lett, 2018).

Molecular target: Indoleamine 2,3-dioxygenase 1 (Homo sapiens, UniProt P14902)
Test: Inhibition of IDO1 in IFN-gamma stimulated human HeLa cells assessed as inhibition of kynurenine production pre-incubated for 1 hr followed by IFN-gamma addition and measured after 18 hrs
Assay type: cell-based

Indoleamine 2,3-dioxygenase 1, sequence (P14902 whole entry): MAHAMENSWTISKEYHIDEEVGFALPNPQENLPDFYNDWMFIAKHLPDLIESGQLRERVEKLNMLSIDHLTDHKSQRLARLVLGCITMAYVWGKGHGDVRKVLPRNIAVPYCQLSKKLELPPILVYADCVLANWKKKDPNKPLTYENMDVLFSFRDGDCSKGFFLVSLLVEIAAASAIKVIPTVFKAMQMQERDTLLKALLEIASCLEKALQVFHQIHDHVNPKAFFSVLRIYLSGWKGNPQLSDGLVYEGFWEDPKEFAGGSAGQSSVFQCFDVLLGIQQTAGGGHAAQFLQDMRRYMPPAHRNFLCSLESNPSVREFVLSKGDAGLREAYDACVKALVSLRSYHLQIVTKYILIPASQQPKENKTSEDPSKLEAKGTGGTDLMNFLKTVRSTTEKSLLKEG

IC50 | SMILES
76 nM | Cc1ccc(NC(=O)Nc2cc(-c3ccccc3NS(=O)(=O)C(F)(F)F)ccc2N(CC(C)C)CC(C)C)cc1
> 1000 nM | Cc1ccc(NC(=O)Nc2cc(-c3ccccc3C(=O)NS(=O)(=O)C(F)(F)F)ccc2N(CC(C)C)CC(C)C)cc1
> 1000 nM | Cc1ccc(NC(=O)Nc2cc(-c3cccc(C(=O)O)c3)ccc2Oc2ccccc2C(C)(C)C)cc1
28 nM | Cc1ccc(N2CCN(c3cc(-c4ccccc4-c4nnn[nH]4)ccc3N(CC(C)C)CC(C)C)C2=O)cc1
13 nM | Cc1ccc(NC(=O)Nc2cc(-c3ccccc3C(=O)O)ccc2N(CC(C)C)CC(C)C)cc1
> 1000 nM | Cc1ccc(NC(=O)Nc2cc(-c3ccccc3C(=O)O)ccc2N(C)c2ccccc2C(C)(C)C)cc1
4 nM | Cc1ccc(NC(=O)Nc2cc(-c3ccccc3-c3nnn[nH]3)ccc2N(CC(C)C)CC(C)C)cc1
405 nM | Cc1ccc(N(C)C(=O)Nc2cc(-c3ccccc3-c3nnn[nH]3)ccc2N(CC(C)C)CC(C)C)cc1
> 1000 nM | Cc1ccc(NC(=O)Nc2cc(-c3ccccc3NS(C)(=O)=O)ccc2N(CC(C)C)CC(C)C)cc1
23 nM | CCN(c1ccc(-c2ccccc2C(=O)O)cc1NC(=O)Nc1ccc(C)cc1)C1CCCC1
14 nM | Cc1ccc(NC(=O)Nc2cc(-c3ccccc3C(=O)O)ccc2N(C)C2CCCCC2)cc1
> 1000 nM | COCCN(CCOC)c1ccc(-c2ccccc2C(=O)O)cc1NC(=O)Nc1ccc(C)cc1
42 nM | Cc1ccc(NC(=O)Nc2cc(-c3ccccc3C(=O)O)ccc2N(CC(C)C)C(C)C)cc1
45 nM | CCCCN(CCCC)c1ccc(-c2ccccc2C(=O)O)cc1NC(=O)Nc1ccc(C)cc1
97 nM | Cc1ccc(NC(=O)N(C)c2cc(-c3ccccc3-c3nnn[nH]3)ccc2N(CC(C)C)CC(C)C)cc1
> 1000 nM | Cc1ccc(NC(=O)Nc2cc(-c3ccc(C(=O)O)cc3)ccc2Oc2ccccc2C(C)(C)C)cc1
